In patent US11324733B2, “Methods for improving memory and cognition and for treating memory and cognitive disorders” (Cavion, Inc., priority 2017, dated 2022):

Tested on: AS mice (Ube3am−/p+ KO mice) with LTP deficits
Experiment: LTP deficits in cognitively deficient (AS) mice; fEPSP recording in hippocampal slices after oral treatment
Type: in vivo
Protocol: For all behavioral and electrophysiology experiments female Ube3am−/p+ KO mice (i.e., AS mice) were crossed with wild-type males, to generate heterozygous AS mice and littermate controls in the F1 hybrid 12952-057BL/6 background. The AS mice have cognitive deficits, including long term potentiation (LTP) deficits.
Control mice (“wt”) were treated with vehicle while AS mice were treated with vehicle or MK-8998 (“CX”) at 30 mg/kg or at 60 mg/kg dose given orally twice per day in the morning and afternoon. Dosing was carried out for one week before testing, then behavioral tests were carried out on the animals over a 5-week period.
After the behavioural tests, animals remained under treatment until the animals were sacrificed one hour after the last drug administration. […] LTP was evoked using the 10 Theta burst protocol (10 trains of 4 stimuli at 100 Hz, 200 ms apart), performed at two-third of the maximum fEPSP. fEPSP sizes were recorded once per minute. Potentiation was measured as the normalized increase of the mean fEPSP slope for the duration of the baseline. […] Final LTP was determined over the last 10 min of the recording. […]
LTP was evoked using the 10 Theta burst protocol (10 trains of 4 stimuli at 100 Hz, 200 ms apart), performed at two-third of the maximum fEPSP. Final LTP was determined over the last 10 min of the recording. […]

Structure (SMILES): CC(C)c1ccc(CC(=O)N[C@H](C)c2ccc(OCC(F)(F)F)cn2)cc1 [MK-8998]
- P, post hoc Bonferroni multiple comparisons, AS Vehicle vs treated (LTP) (30 mg/kg): 0.01
- P, post hoc Bonferroni multiple comparisons, AS Vehicle vs treated (LTP) (60 mg/kg): 0.02
